Measured values: ChEMBL document CHEMBL5696442, “Discovery of type II inhibitors of TGFβ-activated kinase 1 (TAK1) and mitogen-activated protein kinase kinase kinase kinase 2 (MAP4K2)” (J Med Chem, 2015)
The source made the active and inactive calls. No cut-off for these calls is given here.

Assays:
[1] = target: T1, Scaffold protein ILK (Homo sapiens) (UniProt Q13418); experiment: Inhibition of ILK Lys1 labeling site in human Huh-7 cell lysate at 1 uM by KiNativ Profiling analysis relative to control; type: subcellular
T1 sequence (whole entry): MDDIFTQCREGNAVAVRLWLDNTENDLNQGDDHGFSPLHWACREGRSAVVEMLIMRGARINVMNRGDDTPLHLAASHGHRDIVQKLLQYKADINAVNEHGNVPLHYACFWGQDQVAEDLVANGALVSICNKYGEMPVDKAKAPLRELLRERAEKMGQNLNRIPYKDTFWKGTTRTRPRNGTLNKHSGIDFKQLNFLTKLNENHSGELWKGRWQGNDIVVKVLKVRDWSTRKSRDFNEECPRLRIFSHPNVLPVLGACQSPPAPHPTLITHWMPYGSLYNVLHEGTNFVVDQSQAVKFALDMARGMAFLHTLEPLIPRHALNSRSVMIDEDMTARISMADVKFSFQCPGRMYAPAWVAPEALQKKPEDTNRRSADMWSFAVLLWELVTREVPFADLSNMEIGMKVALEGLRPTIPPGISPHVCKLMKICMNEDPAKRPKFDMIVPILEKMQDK

[2] = target: Serine/threonine-protein kinase MARK2 (Homo sapiens) (UniProt Q7KZI7); experiment: Inhibition of MARK2 Lys1 labeling site harbouring EVAVKIIDKTQLNSSSLQK in human Huh-7 cell lysate at 1 uM by KiNativ Profiling analysis relative to control; type: subcellular
[3] = target: Serine/threonine-protein kinase 38-like (Homo sapiens) (UniProt Q9Y2H1); experiment: Inhibition of NDR2 Lys1 labeling site in human Huh-7 cell lysate at 1 uM by KiNativ Profiling analysis relative to control; type: subcellular
[4] = target: Serine/threonine-protein kinase Nek6 (Homo sapiens) (UniProt Q9HC98); experiment: Inhibition of NEK6 Lys2 labeling site harbouring VMHRDIKPANVFITATGVVK in human Huh-7 cell lysate at 1 uM by KiNativ Profiling analysis relative to control; type: subcellular
[5] = target: Serine/threonine-protein kinase WNK3 (Homo sapiens) (UniProt Q9BYP7); experiment: Inhibition of Wnk3 ACT labeling site in human Huh-7 cell lysate at 1 uM by KiNativ Profiling analysis relative to control; type: subcellular
[6] = target: Myosin light chain kinase, smooth muscle (Homo sapiens) (UniProt Q15746); experiment: Inhibition of smMLCK Lys2 labeling site in human Huh-7 cells at 1 uM by KiNativ Profiling analysis relative to control; type: cell-based
[7] = target: Serine/threonine-protein kinase 4 (Homo sapiens) (UniProt Q13043); experiment: Inhibition of MST1 Lys2 labeling site harbouring DIKAGNILLNTEGHAK in human Huh-7 cell lysate at 1 uM by KiNativ Profiling analysis relative to control
[8] = target: Casein kinase II subunit alpha (Homo sapiens) (UniProt P68400); experiment: Inhibition of CSNK2A1 (unknown origin) at 10 uM by Ambit Kinomescan binding assay
[9] = target: Mast/stem cell growth factor receptor Kit (Homo sapiens) (UniProt P10721); experiment: Inhibition of KIT (unknown origin) at 10 uM by Ambit Kinomescan binding assay relative to control
[10] = target: Microtubule-associated serine/threonine-protein kinase 3 (Homo sapiens) (UniProt O60307); experiment: Inhibition of MAST3 Lys2 labeling site in human A-375 cells at 5 uM by KiNativ Profiling analysis relative to control; type: cell-based
[11] = target: Ribosomal protein S6 kinase alpha-1 (Homo sapiens) (UniProt Q15418); experiment: Inhibition of RSK1 domain1 Lys1 labeling site in human A-375 cells at 5 uM by KiNativ Profiling analysis relative to control; type: cell-based
[12] = target: Calcium/calmodulin-dependent protein kinase type II subunit delta (Homo sapiens) (UniProt Q13557); experiment: Inhibition of CAMK2d K1 labeling site in human Huh-7 cells at 10 uM by KiNativ Profiling analysis relative to control; type: cell-based
[13] = target: T2, Myotonin-protein kinase (Homo sapiens) (UniProt Q09013); experiment: Inhibition of DMPK1 K2 labeling site in human Huh-7 cells at 1 uM by KiNativ Profiling analysis relative to control; type: cell-based
T2 sequence (whole entry): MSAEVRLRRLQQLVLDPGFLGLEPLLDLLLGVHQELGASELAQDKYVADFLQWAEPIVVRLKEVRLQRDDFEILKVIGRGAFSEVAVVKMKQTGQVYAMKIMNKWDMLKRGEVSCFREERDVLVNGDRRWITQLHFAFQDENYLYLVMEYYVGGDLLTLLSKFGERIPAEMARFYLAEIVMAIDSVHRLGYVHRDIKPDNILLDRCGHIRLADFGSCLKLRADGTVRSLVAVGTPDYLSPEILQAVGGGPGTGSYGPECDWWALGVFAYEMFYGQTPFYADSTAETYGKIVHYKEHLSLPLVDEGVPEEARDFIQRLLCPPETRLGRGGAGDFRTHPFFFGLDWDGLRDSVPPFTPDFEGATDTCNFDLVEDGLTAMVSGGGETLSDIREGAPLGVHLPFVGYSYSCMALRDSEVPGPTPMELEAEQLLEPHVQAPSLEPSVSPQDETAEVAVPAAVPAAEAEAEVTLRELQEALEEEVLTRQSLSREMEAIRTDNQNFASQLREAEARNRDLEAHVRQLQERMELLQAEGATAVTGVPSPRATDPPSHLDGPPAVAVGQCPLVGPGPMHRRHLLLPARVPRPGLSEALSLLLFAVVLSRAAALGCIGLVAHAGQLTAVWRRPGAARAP

[14] = target: Serine/threonine-protein kinase 38-like (Homo sapiens) (UniProt Q9Y2H1); experiment: Inhibition of NDR2 Lys1 labeling site harbouring KDTGHIYAMKILR in human A-375 cells at 5 uM by KiNativ Profiling analysis relative to control; type: cell-based
[15] = target: Tyrosine-protein kinase Fyn (Homo sapiens) (UniProt P06241); experiment: Inhibition of FYN ACT labeling site in human A-375 cells at 0.05 uM by KiNativ Profiling analysis relative to control; type: cell-based
[16] = target: T3, Dual specificity mitogen-activated protein kinase kinase 3 (Homo sapiens) (UniProt P46734); experiment: Inhibition of MEK3 (unknown origin) at 1 uM by Ambit Kinomescan binding assay relative to control; values are per cent of control
T3 sequence (whole entry): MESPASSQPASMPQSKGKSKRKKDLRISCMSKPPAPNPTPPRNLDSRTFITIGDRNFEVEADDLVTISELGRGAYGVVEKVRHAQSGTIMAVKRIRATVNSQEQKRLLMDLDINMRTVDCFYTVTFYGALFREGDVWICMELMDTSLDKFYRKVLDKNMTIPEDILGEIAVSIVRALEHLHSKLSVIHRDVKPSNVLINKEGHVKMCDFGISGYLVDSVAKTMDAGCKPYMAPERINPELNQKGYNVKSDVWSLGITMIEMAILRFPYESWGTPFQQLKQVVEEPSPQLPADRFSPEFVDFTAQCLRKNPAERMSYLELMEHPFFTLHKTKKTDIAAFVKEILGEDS

Serine/threonine-protein kinase 38-like (Homo sapiens), sequence (Q9Y2H1 2-464 limits assumed): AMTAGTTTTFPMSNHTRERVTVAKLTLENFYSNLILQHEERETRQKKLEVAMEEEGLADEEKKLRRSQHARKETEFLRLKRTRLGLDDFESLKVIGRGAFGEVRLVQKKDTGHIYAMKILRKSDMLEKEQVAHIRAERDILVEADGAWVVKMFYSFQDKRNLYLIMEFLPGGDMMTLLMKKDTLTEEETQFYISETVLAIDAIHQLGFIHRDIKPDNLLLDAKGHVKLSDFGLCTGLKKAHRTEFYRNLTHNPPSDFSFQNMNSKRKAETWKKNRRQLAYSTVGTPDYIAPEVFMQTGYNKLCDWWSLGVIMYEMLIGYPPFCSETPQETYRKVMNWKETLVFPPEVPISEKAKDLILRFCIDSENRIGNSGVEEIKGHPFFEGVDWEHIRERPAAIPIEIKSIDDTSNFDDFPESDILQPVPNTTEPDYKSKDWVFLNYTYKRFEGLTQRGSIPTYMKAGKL
Ribosomal protein S6 kinase alpha-1 (Homo sapiens), sequence (Q15418 whole entry, the tested form may be a part): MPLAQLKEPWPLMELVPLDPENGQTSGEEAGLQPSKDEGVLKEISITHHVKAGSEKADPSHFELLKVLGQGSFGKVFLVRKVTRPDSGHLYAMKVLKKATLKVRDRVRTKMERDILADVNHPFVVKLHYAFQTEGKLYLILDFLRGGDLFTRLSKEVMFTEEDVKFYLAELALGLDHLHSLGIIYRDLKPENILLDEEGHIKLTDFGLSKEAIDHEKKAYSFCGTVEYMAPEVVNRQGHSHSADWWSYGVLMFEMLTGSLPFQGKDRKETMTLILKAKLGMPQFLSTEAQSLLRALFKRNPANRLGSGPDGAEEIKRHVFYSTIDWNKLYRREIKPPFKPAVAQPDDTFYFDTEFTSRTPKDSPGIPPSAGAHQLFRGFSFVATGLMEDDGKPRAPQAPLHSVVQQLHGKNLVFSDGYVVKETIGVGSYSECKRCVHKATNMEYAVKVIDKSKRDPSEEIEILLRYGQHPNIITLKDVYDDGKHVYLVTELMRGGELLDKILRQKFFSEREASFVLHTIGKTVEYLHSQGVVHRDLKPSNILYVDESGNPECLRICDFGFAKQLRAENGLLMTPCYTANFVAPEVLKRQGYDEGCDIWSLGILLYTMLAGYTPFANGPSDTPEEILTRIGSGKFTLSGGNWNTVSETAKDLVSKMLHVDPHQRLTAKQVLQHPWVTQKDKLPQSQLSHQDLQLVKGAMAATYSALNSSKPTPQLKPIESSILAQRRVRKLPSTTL
Myosin light chain kinase, smooth muscle (Homo sapiens), sequence (Q15746 whole entry): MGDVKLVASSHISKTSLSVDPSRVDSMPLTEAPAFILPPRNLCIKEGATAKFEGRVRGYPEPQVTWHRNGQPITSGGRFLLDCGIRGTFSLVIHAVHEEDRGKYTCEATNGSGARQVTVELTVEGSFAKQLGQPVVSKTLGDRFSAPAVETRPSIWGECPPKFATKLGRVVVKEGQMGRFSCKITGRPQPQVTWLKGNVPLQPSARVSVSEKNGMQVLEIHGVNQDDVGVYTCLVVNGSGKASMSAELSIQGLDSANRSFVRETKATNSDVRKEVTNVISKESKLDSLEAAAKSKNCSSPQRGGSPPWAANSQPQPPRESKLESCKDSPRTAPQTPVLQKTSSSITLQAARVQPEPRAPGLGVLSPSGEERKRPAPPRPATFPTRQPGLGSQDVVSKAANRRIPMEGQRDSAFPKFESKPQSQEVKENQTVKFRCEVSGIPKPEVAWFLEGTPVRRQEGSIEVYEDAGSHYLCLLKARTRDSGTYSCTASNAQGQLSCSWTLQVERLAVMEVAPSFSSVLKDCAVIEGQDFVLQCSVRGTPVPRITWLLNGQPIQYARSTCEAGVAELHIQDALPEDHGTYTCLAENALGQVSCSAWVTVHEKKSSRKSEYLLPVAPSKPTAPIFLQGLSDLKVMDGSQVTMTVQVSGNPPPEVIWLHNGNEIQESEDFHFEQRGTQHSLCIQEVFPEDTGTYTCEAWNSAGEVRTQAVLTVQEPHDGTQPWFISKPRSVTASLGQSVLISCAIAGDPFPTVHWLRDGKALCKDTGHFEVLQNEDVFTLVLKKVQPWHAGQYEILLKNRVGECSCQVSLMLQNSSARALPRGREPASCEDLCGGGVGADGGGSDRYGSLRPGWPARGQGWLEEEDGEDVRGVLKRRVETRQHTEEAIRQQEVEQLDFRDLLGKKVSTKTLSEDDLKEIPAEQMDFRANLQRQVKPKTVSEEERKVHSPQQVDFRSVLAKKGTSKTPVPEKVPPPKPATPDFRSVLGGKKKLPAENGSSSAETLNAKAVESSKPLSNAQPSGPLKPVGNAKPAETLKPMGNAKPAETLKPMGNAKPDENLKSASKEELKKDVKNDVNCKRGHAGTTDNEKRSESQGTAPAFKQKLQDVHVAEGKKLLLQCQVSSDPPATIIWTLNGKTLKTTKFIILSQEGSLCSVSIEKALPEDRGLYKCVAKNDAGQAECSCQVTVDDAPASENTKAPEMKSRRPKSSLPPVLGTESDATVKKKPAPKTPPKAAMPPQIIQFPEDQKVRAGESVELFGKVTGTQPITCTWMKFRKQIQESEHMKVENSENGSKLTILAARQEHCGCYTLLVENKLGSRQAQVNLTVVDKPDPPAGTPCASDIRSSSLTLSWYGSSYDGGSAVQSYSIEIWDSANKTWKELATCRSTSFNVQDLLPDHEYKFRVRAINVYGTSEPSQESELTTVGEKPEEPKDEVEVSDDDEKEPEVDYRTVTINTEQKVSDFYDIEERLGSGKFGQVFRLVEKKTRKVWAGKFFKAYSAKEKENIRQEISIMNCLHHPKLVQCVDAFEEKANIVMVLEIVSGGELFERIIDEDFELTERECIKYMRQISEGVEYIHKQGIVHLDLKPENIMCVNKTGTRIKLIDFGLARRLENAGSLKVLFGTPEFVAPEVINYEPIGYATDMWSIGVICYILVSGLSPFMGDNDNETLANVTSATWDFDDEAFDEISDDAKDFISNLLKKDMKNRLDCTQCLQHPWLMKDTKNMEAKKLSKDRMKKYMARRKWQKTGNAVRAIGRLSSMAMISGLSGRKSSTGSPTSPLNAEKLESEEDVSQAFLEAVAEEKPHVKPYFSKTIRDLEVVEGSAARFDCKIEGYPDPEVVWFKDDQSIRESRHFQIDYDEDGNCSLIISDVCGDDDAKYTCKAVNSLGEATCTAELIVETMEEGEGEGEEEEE
Tyrosine-protein kinase Fyn (Homo sapiens), sequence (P06241 2-537 limits assumed): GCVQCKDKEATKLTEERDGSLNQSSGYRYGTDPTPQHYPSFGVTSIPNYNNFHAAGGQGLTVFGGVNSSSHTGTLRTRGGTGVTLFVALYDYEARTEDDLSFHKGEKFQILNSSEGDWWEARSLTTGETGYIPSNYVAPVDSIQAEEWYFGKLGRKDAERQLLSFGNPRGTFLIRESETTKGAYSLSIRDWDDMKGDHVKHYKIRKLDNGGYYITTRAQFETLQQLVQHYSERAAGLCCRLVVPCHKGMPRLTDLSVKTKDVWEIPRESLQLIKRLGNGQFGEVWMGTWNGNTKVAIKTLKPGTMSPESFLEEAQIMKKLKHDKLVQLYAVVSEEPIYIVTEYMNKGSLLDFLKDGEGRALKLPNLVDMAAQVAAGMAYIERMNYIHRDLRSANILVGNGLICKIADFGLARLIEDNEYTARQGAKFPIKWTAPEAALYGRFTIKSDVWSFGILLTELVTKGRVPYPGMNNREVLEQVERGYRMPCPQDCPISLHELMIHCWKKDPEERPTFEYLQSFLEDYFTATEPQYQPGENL
Serine/threonine-protein kinase Nek6 (Homo sapiens), sequence (Q9HC98 whole entry): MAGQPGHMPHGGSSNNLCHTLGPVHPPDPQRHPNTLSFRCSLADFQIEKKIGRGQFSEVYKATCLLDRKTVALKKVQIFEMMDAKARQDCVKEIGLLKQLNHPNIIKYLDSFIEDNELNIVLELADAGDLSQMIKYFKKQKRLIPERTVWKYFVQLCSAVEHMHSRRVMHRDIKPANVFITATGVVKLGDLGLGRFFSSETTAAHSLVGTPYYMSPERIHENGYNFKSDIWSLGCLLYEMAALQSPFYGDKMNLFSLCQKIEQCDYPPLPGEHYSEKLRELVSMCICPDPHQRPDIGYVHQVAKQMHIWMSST
Casein kinase II subunit alpha (Homo sapiens), sequence (P68400 whole entry, looked up): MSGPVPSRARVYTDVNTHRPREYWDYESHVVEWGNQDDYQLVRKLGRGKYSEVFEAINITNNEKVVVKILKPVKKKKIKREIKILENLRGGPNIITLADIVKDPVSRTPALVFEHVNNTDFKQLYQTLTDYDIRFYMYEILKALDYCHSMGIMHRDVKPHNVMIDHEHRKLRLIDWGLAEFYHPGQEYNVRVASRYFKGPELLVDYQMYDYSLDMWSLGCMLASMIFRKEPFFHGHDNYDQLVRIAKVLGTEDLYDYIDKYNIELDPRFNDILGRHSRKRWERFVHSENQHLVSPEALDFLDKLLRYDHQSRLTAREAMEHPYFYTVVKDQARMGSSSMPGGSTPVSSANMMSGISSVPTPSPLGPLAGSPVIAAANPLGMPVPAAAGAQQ
Serine/threonine-protein kinase 4 (Homo sapiens), sequence (Q13043 whole entry, looked up): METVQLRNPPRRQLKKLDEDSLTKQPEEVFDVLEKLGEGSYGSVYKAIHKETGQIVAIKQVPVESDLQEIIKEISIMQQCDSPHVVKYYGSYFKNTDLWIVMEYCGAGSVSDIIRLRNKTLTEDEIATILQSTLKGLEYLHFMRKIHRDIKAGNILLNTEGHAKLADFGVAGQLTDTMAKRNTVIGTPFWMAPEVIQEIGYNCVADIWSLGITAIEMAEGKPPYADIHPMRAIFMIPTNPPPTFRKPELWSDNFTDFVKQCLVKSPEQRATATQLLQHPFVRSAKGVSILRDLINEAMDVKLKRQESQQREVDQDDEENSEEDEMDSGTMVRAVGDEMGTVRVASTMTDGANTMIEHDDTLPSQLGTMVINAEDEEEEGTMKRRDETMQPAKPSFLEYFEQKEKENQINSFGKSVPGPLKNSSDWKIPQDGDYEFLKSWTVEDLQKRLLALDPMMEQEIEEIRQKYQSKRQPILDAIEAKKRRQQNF

Compound `CNc1cc(Oc2cc(C(=O)Nc3cc(N4CCN(C)CC4)cc(C(F)(F)F)c3)ccc2C)ncn1` has an inhibition [1] of -6.9%, an inhibition [2] of 7.4% and an inhibition [3] of -6.7%. It also gave an inhibition [4] of 19.4%, an inhibition [5] of -6.9% and an inhibition [6] of 34.3%. It also gave an inhibition [7] of 8.2%.
For `CCN1CCN(Cc2ccc(NC(=O)c3ccc(C)c(Oc4ccnc5[nH]ccc45)c3)cc2C(F)(F)F)CC1`, the inhibition [8] was “inactive”, the inhibition [9] was 0% and the inhibition [10] was 4.8%. The inhibition [11] was -8.6%, the inhibition [12] was 0.1% and the inhibition [13] was -7.6%.
For `CCN1CCN(Cc2ccc(NC(=O)c3ccc(C)c(/C=C/c4cnc5[nH]ccc5c4OC)c3)cc2C(F)(F)F)CC1`, the inhibition [14] was 14.8%, the inhibition [15] was 38.9% and the residual activity [16] was 62%.
